Source: US8916604B2, “Compositions and methods for epigenetic modification of nucleic acid sequences” (Rutgers, The State University of New Jersey, priority 2011, dated 2014)
Read-outs that look alike come from different tables or passages of the source.

Assays:
HepG2-C8 cells = assay: MTS cell viability assay; assay type: cell-based, human
Experimental: The stably transfected single clone HepG2-ARE-C8 (HepG2-C8) cell line has been established previously in our laboratory using the […]-luciferase reporter gene. The cells were maintained in Dulbecco's modified Eagle medium supplemented with 10% fetal bovine serum (FBS), 1.17 g/l sodium bicarbonate, and 100 unit/ml penicillin, 100 μg/ml streptomycin at 37° C. in a humidified incubator with 5% CO2. […] MTS] (Promega, Madison, Wis.). […] The cells were then treated with MTS for 1 h at 37° C. Absorbance of the formazan product was read at 490 nm with a μQuant Biomolecular Spectrophotometer from Bio-Tek Instruments Inc. (Winooski, Vt.). Independent control studies were conducted using 1% and 10% FBS medium.

[1] = system: antioxidant response element (ARE); assay: ARE-luciferase reporter assay with combination index calculation; assay type: cell-based, human
Experimental: The stably transfected single clone HepG2-ARE-C8 (HepG2-C8) cell line has been established previously in our laboratory using the […]-luciferase reporter gene. The cells were maintained in Dulbecco's modified Eagle medium supplemented with 10% fetal bovine serum (FBS), 1.17 g/l sodium bicarbonate, and 100 unit/ml penicillin, 100 μg/ml streptomycin at 37° C. in a humidified incubator with 5% CO2. The HepG2-C8 cells were cultured in 12-well plates and each well contained 1 million cells in 1 ml of 10% FRS medium. The cells were treated with compounds for 24 h. The luciferase activity was determined using a luciferase kit from Promega (Madison, USA) according to the manufacturer's instructions. Briefly, after treatments for 24 h, the cells were washed twice with ice-cold phosphate buffered-saline (PBS, pH 7.4) and harvested in 1× reporter lysis buffer and […]. After centrifugation at 4° C., 12000 rpm for 5 min, a 10 μl aliquot of the supernatant was assayed for luciferase activity with a Sirius luminometer (Berthold Detection System GmbH, Pforzheim, Germany). The luciferase activity was normalized against protein concentration, determined by a BCA protein assay (Pierce, Rockford, USA), and expressed as the fold induction over the luciferase activity of control vehicle-treated cells. At least two to three independent studies were conducted in triplicates. To determine the synergistic effect between the combination of two different compounds, the combination index (CI) was calculated with the following formula: […] This approach is based on the Loewe additivity model and although the exact mechanism of interaction may be unknown, this model is one of the most commonly used reference models for evaluating potential drug-drug interactions Lee et al., J Biopharm Stat 2007; 17: 461-480).

HO-1 = assay: qPCR mRNA expression in HepG2-C8 cells; assay type: cell-based, human; conditions: 25 μM, 6 h, vs 0.1% DMSO
Experimental: (§1) The cells were treated similarly to the NITS and ARE-luciferase assays described above using 10% FBS medium. The incubation of the compounds with the cells was terminated 6 h later. The mRNA expression was evaluated utilizing a quantitative real-time polymerase chain reaction (qPCR). An RNeasy kit from Qiagen was used for RNA extraction (Valencia, Calif.). The total RNA was reverse-transcribed to cDNA by TaqMan Reverse Transcription Reagents (Applied Biosystems Inc, Foster City, Calif.). SYBR Green (Applied Biosystems Inc, Foster City, Calif.) fluorescence was used to measure the product of qPCR. Glyceraldehyde 3-phosphate dehydrogenase (GAPDH) was used as the housekeeping gene, and the Applied Biosystems 7900HT Fast Real-Time PCR System (Applied Biosystems Inc, Foster City, Calif.) was used as described previously (Saw et al., Biochem Pharmacol 2010; 79: 421-430) to detect quantitatively the induction of mRNA of Nrf2, phase II DME GSTm2, NAD (P)H dehydrogenase, quinone 1 (NQO1), UGT family, polypeptide A1 (UGT1A1) and antioxidant enzymes HO-1, superoxide dismutase 1 (SOD1). The primer pairs were designed using the Primer Quest Oligo Design and Analysis Tool by Integrated DNA Technologies Inc. (Coralville, Iowa, USA) and the sequences are listed in Table 4. At least four wells of each treatment were performed and duplicate samples were carried out for each treatment.

Nrf2 = assay: qPCR mRNA expression in HepG2-C8 cells; assay type: cell-based, human; conditions: 25 μM, 6 h, vs 0.1% DMSO
Experimental: as §1

[2] = oral; cited from earlier work
NQO1 = assay: qPCR mRNA expression in HepG2-C8 cells; assay type: cell-based, human; conditions: 6 h
Experimental: as §1

[3] = system: first 5 CpGs in the promoter region of Nrf2 gene; conditions: TRAMP C1 cells, other DNA de-methylating agents; cited from earlier work
[4] = Homo sapiens, HepG2C8, 1% FBS medium, read-out: cell viability inhibitory concentrations (IC50)

## OCc1c[nH]c2ccccc12 [I3C, indole-3-carbinol]
HepG2-C8 cells; 1% FBS medium, read-out: cell viability inhibitory concentrations (IC50)
  IC50: 135 µM
HepG2-C8 cells; 10% FBS medium (data not shown), read-out: cell viability IC50
  IC50: 300 µM
[1]; doses lower than 25 μM, 10% FBS medium (data not shown)
  induction of ARE-luciferase: no significant induction
HO-1
  HO-1 mRNA induction over control: did not show significant induction
Nrf2
  Nrf2 mRNA induction over control: did not show significant induction
[2]
  tolerability: well tolerated

## S=C=NCCc1ccccc1 [PEITC, phenethyl isothiocyanate]
HepG2-C8 cells; [4]
  IC50: ~20 µM
NQO1; 1 μM
  NQO1 gene expression: greatly induced

## C[S+]([O-])CCCCN=C=S (stereo not drawn) [SFN, sulforaphane]
HepG2-C8 cells; [4]
  IC50: ~20 µM
[1]; time course study, after treatment
  time of peak induction of ARE-luciferase activity: 18 h
NQO1; any concentration
  NQO1 gene expression: not significantly induced

## COc1cc(/C=C/C(=O)CC(=O)/C=C/c2ccc(O)c(OC)c2)ccc1O [curcumin]
[3]
  CpG methylation of the first 5 CpGs of the promoter of Nrf2 gene: decreased CpG methylation
